Where a name gives a salt, the structure may show the parent alone.
Columns and labels:
[1] = system: basal locomotor activity of mice; assay: Open field, basal locomotor activity of mice (Example 4B); assay type: in vivo, mouse; settings: test condition water
Protocol: (§1) Cariprazine hydrochloride and escitalopram oxalate were evaluated for anti-manic effects using the amphetamine/chlordiazepoxide (AMPH/CDP) hyperactivity test.
(§2) Male C57B1/6J mice (8 weeks old) from Jackson Laboratories (Bar Harbor, Me.) were used in this study. Upon receipt, mice were assigned unique identification numbers (tail marked) and were group housed (4 mice/cage) in OPTI mouse ventilated cages. All animals remained housed in groups of four during the remainder of the study. During the period of acclimation, mice were examined on a regular basis, handled, and weighed to assure adequate health and suitability. Mice were maintained on a 12/12 light/dark cycle. The room temperature was maintained between 20 and 23° C. with a relative humidity maintained between 30% and 70%. Chow and water were provided ad libitum for the duration of the study. In each test, animals were randomly assigned across treatment groups.
(§3) Distance traveled is measured by consecutive beam breaks.
(§4) Data was analyzed by analysis of variance (ANOVA) followed by Fisher PLSD post-hoc analysis when appropriate. An effect was considered significant if p<0.05. Outliers that fell above and below two standard deviations from the mean were removed from the final analysis.

[2] = system: extracellular dopamine (DA) in the frontal cortex; assay: Dual-probe microdialysis, dopamine in frontal cortex of freely-moving rats; assay type: in vivo, rat
Protocol: (§5) A dual-probe microdialysis study was conducted to determine the effects of oral administration of cariprazine hydrochloride, alone and in combination with escitalopram oxalate (administered subcutaneously), on extracellular concentrations of acetylcholine (ACh), dopamine (DA) and serotonin (5-HT) in the frontal cortex of freely-moving rats.
(§6) Experiments were carried out in male Sprague Dawley rats (250-350 g body weight; Charles River, UK). Animals were housed in groups of six on a 12 h/12 h light/dark cycle (lights on at 07.30 h), at an ambient temperature of 21±2° C. and 55±20% humidity. Food and water were available ad libitum. Animals were allowed to acclimatise to these conditions for at least 5 days prior to the study.
(§7) Rats were anaesthetised with isoflurane (5% to induce, 2% to maintain) in an O2/N2O (1 litre/min each) mixture delivered via an anaesthetic unit (St Bernard Medical Services, UK). […] Samples were measured from the same side in each rat (e.g. left probe was used to measure ACh and right probe was used to measure DA and 5-HT). […]

[3] = system: extracellular acetylcholine (ACh) in the frontal cortex; assay: Dual-probe microdialysis, acetylcholine in frontal cortex of freely-moving rats; assay type: in vivo, rat; settings: for change in basal ACh levels compared to vehicle+saline-treated controls: escitalopram oxalate 1.0 mg/kg sc
Protocol: as §5, §6
Rats were anaesthetised with isoflurane (5% to induce, 2% to maintain) in an O2/N2O (1 litre/min each) mixture delivered via an anaesthetic unit (St Bernard Medical Services, UK). Concentric microdialysis probes with 2 mm exposed polyarylethersulphone (PAES) membrane tip (CMA) were stereotaxically implanted bilaterally into the prefrontal cortex (coordinates: AP: +3.2 mm; L: +/−2.5 mm relative to bregma; V: −4.0 mm relative to the skull surface; taken from the stereotaxic atlas of Paxinos and Watson (Paxinos G, Watson C., The Rat Brain in Stereotaxic Coordinates, 2nd Edition, London: Academic Press, 1986). The upper incisor bar was set at 3.3 mm below the interaural line so that the skull surface between bregma and lambda was horizontal. The coordinates for each probe were identical from bregma except for the lateral measurement as one probe was placed to the left of the midline and the other to the right. Samples were measured from the same side in each rat (e.g. left probe was used to measure ACh and right probe was used to measure DA and 5-HT). Additional burr holes were made for skull screws (stainless steel) and the probes were secured using dental cement. […]

[4] = system: extracellular serotonin (5-HT) in the frontal cortex; assay: Dual-probe microdialysis, serotonin in frontal cortex of freely-moving rats; assay type: in vivo, rat
Protocol: as §5, §6, §7

[5] = system: d-amphetamine/chlordiazepoxide mixture (AMPH/CDP)-induced hyperactivity in mice; assay: d-Amphetamine/chlordiazepoxide (AMPH/CDP) hyperactivity test (Example 4A); assay type: in vivo, mouse; settings: for Total Distance Traveled [mean ± SEM]: test condition AMPH/CDP, 60 min pretreatment
Protocol: as §1
as §2, with “C57B1/6J mice from Jackson” for “C57B1/6J mice (8 weeks old) from Jackson”, “this study. Mice were received at 6-weeks of age. Upon receipt,” for “this study. Upon receipt,”, “group housed with 4 mice/cage. All animals” for “group housed (4 mice/cage) in OPTI mouse ventilated cages. All animals”, “the study. All mice were acclimated to the colony room for at least two weeks prior to testing and were subsequently tested at an average age of 8 weeks of age. During the” for “the study. During the”
d-Amphetamine sulfate (Sigma, 4.0 mg/kg) and chlordiazepoxide (CDP; Sigma, 2.5 mg/kg) were dissolved in sterile water and were administered intraperitoneally at a dose volume of 10 ml/kg.
as §3, §4

[6] = cariprazine hydrochloride alone 0.03, 0.1 and 0.3 mg/kg po
[7] = escitalopram oxalate 1.0 mg/kg sc

SMILES | Total Distance Traveled [mean ± SEM] ([1]; cariprazine HCl 0.03 mg/kg oral) [cm/60 min] | Total Distance Traveled [mean ± SEM] ([1]; cariprazine HCl 0.10 mg/kg oral) [cm/60 min] | efflux of DA in the frontal cortex [2, 6] | efflux of ACh in the frontal cortex [3, 6] | efflux of 5-HT in the frontal cortex [4, 6] | effect on mixture-induced hyperactivity ([5]; cariprazine hydrochloride 0.10 and 0.30 mg/kg oral) | Total Distance Traveled [mean ± SEM] ([5]; 0.03 mg/kg oral) [cm/60 min] | Total Distance Traveled [mean ± SEM] ([5]; 0.10 mg/kg oral) [cm/60 min] | Total Distance Traveled [mean ± SEM] ([5]; 0.30 mg/kg oral) [cm/60 min] | Total Distance Traveled [mean ± SEM] ([1]; escitalopram oxalate 0.10 mg/kg oral) [cm/60 min] | Total Distance Traveled [mean ± SEM] ([1]; escitalopram oxalate 0.50 mg/kg oral) [cm/60 min] | basal DA levels [2, 7] | change in basal ACh levels compared to vehicle+saline-treated controls ([3]; 100 min post-administration) [%] | change in basal ACh levels compared to vehicle+saline-treated controls ([3]; 240 min post-administration) [%] | basal 5-HT levels [4, 7] | effect on mixture-induced hyperactivity ([5]; escitalopram oxalate 0.5 mg/kg oral) | effect on mixture-induced hyperactivity ([5]; escitalopram oxalate 5.0 mg/kg oral) | Total Distance Traveled [mean ± SEM] ([5]; 0.50 mg/kg oral) [cm/60 min] | Total Distance Traveled [mean ± SEM] ([5]; 2.0 mg/kg oral) [cm/60 min] | Total Distance Traveled [mean ± SEM] ([5]; 5.0 mg/kg oral) [cm/60 min]
CN(C)C(=O)N[C@H]1CC[C@H](CCN2CCN(c3cccc(Cl)c3Cl)CC2)CC1 [Cariprazine hydrochloride, trans-4-{2-[4-(2,3-dichlorophenyl)-piperazin-1-yl]-ethyl}-N,N-dimethylcarbamoyl-cyclohexylamine hydrochloride] | 4013 ± 343 | 2697 ± 259 | no significant effect | no significant effect | no significant effect | significantly decreased | 32122 ± 2942 | 13688 ± 2349 | 2525 ± 204 |  |  |  |  |  |  |  |  |  |  | 
CN(C)CCC[C@@]1(c2ccc(F)cc2)OCc2cc(C#N)ccc21 [Escitalopram oxalate, 1-[3-(dimethyl-amino)propyl]-1-(p-fluorophenyl)-5-phthalancarbonitrile] |  |  |  |  |  |  |  |  |  | 5551 ± 382 | 5238 ± 242 | no effect | −55 | −56 | no effect | trend toward a significant decrease | increased | 30067 ± 1901 | 36112 ± 1934 | 39639 ± 1582

Reference: US20110015208A1, “PHARMACEUTICAL COMPOSITIONS CONTAINING DOPAMINE RECEPTOR LIGANDS AND METHODS OF TREATMENT USING DOPAMINE RECEPTOR LIGANDS” (priority 2007, published 2011)
